Measurements reported in patent US20250314638A1, “OBLIQUE LINE SCANNER SYSTEMS AND METHODS FOR HIGH THROUGHPUT SINGLE MOLECULE TRACKING IN LIVING CELLS” (EIKON THERAPEUTICS, INC., priority 2022, published 2025).

Tested on: Halo-PCNA U2OS cells
Assay: Cell cycle block validated by machine-learning cell cycle phase assignment in Halo-PCNA cells
Type: cell-based
Conditions: 2 mM Thymidine (S-phase block) or (G2-M block)
Protocol: Time-lapse microscopy was conducted on Halo-PCNA labeled with 50 nM JFX650, to achieve near-saturating labeling, for 12 hours at 12 frames per hour (FIG. 21A). A machine learning model was then trained using both manually assigned cell stages and time-based progression resulting in both a G1, early S, mid S, late S, G2 and mitosis classifier as well as a regression prediction across the continuum of the cell cycle (FIG. 21B). The predicted cell cycle classification performed well as compared to manual annotation (FIG. 21C). Clear progression of individual cells through the cell cycle was observed when regression prediction was plotted across the time series (FIG. 21D). […] When cells in each cell phase were analyzed separately, it became apparent that the slow-moving population of PCNA was exclusively found in cell predicted to be in S-phase and that there was a marked decrease in the fast-moving population (FIG. 20E). Mean diffusion coefficient of PCNA was then measured for 4,081 individual cells to characterize heterogeneity across the cell population, which is described in large part by cell cycle (FIG. 20F).
Cell cycle as provided above can be automatically determined using an image (e.g., an image of JF549-labeled PCNA). […]

Structure (SMILES) | fraction of cells assigned to cell cycle phases
O=C1NC(=NCc2cccs2)S/C1=C\c1ccc2ncccc2c1 [RO-3306] | expected enrichment in the fraction of cells assigned to the respective cell phases
Cc1cn([C@H]2C[C@H](O)[C@@H](CO)O2)c(=O)[nH]c1=O [thymidine] | expected enrichment in the fraction of cells assigned to the respective cell phases
